Columns and labels:
Assay in all cases: cells
OAW-28 = format: functional, cell-based, Homo sapiens; conditions: Homo sapiens, OAW-28
Description: SANGER: Inhibition of human OAW-28 cell growth in a cell viability assay.

ACHN = format: functional, cell-based, Homo sapiens; conditions: Homo sapiens, ACHN
Description: SANGER: Inhibition of human ACHN cell growth in a cell viability assay.

EFO-27 = format: functional, cell-based, Homo sapiens; conditions: Homo sapiens, EFO-27
Description: SANGER: Inhibition of human EFO-27 cell growth in a cell viability assay.

CAKI-1 = format: functional, cell-based, Homo sapiens; conditions: Homo sapiens, CAKI-1
Description: SANGER: Inhibition of human CAKI-1 cell growth in a cell viability assay.

NCI-H358 = format: functional, cell-based, Homo sapiens; conditions: Homo sapiens, NCI-H358
Description: SANGER: Inhibition of human NCI-H358 cell growth in a cell viability assay.

TE-12 = format: functional, cell-based; conditions: Homo sapiens
Description: SANGER: Inhibition of human TE-12 cell growth in a cell viability assay.

COLO-680N = format: functional, cell-based, Homo sapiens; conditions: Homo sapiens, COLO-680N
Description: SANGER: Inhibition of human COLO-680N cell growth in a cell viability assay.

NOS-1 = format: functional, cell-based, Homo sapiens; conditions: Homo sapiens, NOS-1
Description: SANGER: Inhibition of human NOS-1 cell growth in a cell viability assay.

ES7 = format: functional, cell-based, Homo sapiens; conditions: Homo sapiens, ES7
Description: SANGER: Inhibition of human ES7 cell growth in a cell viability assay.

NMC-G1 = format: functional, cell-based, Homo sapiens; conditions: Homo sapiens, NMC-G1
Description: SANGER: Inhibition of human NMC-G1 cell growth in a cell viability assay.

PFSK-1 = format: functional, cell-based, Homo sapiens; conditions: Homo sapiens, PFSK-1
Description: SANGER: Inhibition of human PFSK-1 cell growth in a cell viability assay.

MSTO-211H = format: functional, cell-based, Homo sapiens; conditions: Homo sapiens, MSTO-211H
Description: SANGER: Inhibition of human MSTO-211H cell growth in a cell viability assay.

LCLC-103H cell line = format: functional, cell-based, Homo sapiens; conditions: Homo sapiens, LCLC-103H
Description: SANGER: Inhibition of human LCLC-103H cell growth in a cell viability assay.

MDA-MB-175-VII = format: functional, cell-based, Homo sapiens; conditions: Homo sapiens, MDA-MB-175-VII
MDA-MB-415 = format: functional, cell-based; conditions: Homo sapiens
COR-L88 = format: functional, cell-based; conditions: Homo sapiens
Description: SANGER: Inhibition of human COR-L88 cell growth in a cell viability assay.

SK-HEP1 = format: functional, cell-based, Homo sapiens, SK-HEP-1; conditions: Homo sapiens, SK-HEP1
Description: SANGER: Inhibition of human SK-HEP-1 cell growth in a cell viability assay.

KP-4 = format: functional, cell-based, Homo sapiens; conditions: Homo sapiens, KP-4; read-out: IC50
Description: SANGER: Inhibition of human KP-4 cell growth in a cell viability assay.

Ramos-2G6-4C10 = format: functional, cell-based; conditions: Homo sapiens
Description: SANGER: Inhibition of human Ramos-2G6-4C10 cell growth in a cell viability assay.

HTC-C3 = format: functional, cell-based, Homo sapiens; conditions: Homo sapiens, HTC-C3
Description: SANGER: Inhibition of human HTC-C3 cell growth in a cell viability assay.

TE-11 = format: functional, cell-based, Homo sapiens; conditions: Homo sapiens, TE-11
Description: SANGER: Inhibition of human TE-11 cell growth in a cell viability assay.

8-MG-BA = format: functional, cell-based, Homo sapiens; conditions: Homo sapiens, 8-MG-BA
Description: SANGER: Inhibition of human 8-MG-BA cell growth in a cell viability assay.

RPMI-2650 = format: functional, cell-based, Homo sapiens; conditions: Homo sapiens, RPMI-2650
Description: SANGER: Inhibition of human RPMI-2650 cell growth in a cell viability assay.

FaDu = format: functional, cell-based, Homo sapiens; conditions: Homo sapiens, FaDu
Description: SANGER: Inhibition of human FADU cell growth in a cell viability assay.

COLO-678 = format: functional, cell-based, Homo sapiens; conditions: Homo sapiens, COLO-678
Description: SANGER: Inhibition of human COLO-678 cell growth in a cell viability assay.

BHY = format: functional, cell-based, Homo sapiens; conditions: Homo sapiens, BHY
Description: SANGER: Inhibition of human BHY cell growth in a cell viability assay.

D-542MG = format: functional, cell-based, Homo sapiens; conditions: Homo sapiens, D-542MG
Description: SANGER: Inhibition of human D-542MG cell growth in a cell viability assay.

MKN-7 = format: functional, cell-based, Homo sapiens; conditions: Homo sapiens, MKN-7
Description: SANGER: Inhibition of human MKN7 cell growth in a cell viability assay.

8505C = format: functional, cell-based, Homo sapiens; conditions: Homo sapiens, 8505C
Description: SANGER: Inhibition of human 8505C cell growth in a cell viability assay.

KM12 = format: functional, cell-based, Homo sapiens; conditions: Homo sapiens, KM12
Description: SANGER: Inhibition of human KM12 cell growth in a cell viability assay.

MDA-MB-361 = format: functional, cell-based, Homo sapiens; conditions: Homo sapiens, MDA-MB-361
SNU-C2B = format: functional, cell-based, Homo sapiens; conditions: Homo sapiens, SNU-C2B
Description: SANGER: Inhibition of human SNU-C2B cell growth in a cell viability assay.

HuCCT-1 = format: functional, cell-based, Homo sapiens, HuCCT1; conditions: Homo sapiens, HuCCT-1
Description: SANGER: Inhibition of human HuCCT1 cell growth in a cell viability assay.

M059J = format: functional, cell-based, Homo sapiens; conditions: Homo sapiens, M059J
Description: SANGER: Inhibition of human M059J cell growth in a cell viability assay.

SW982 = format: functional, cell-based; conditions: Homo sapiens
Description: SANGER: Inhibition of human SW982 cell growth in a cell viability assay.

A204 = format: functional, cell-based, Homo sapiens; conditions: Homo sapiens, A204
Description: SANGER: Inhibition of human A204 cell growth in a cell viability assay.

EM-2 = format: functional, cell-based; conditions: Homo sapiens
Description: SANGER: Inhibition of human EM-2 cell growth in a cell viability assay.

WM-115 = format: functional, cell-based, Homo sapiens; conditions: Homo sapiens, WM-115
Description: SANGER: Inhibition of human WM-115 cell growth in a cell viability assay.

HSC-2 = format: functional, cell-based, Homo sapiens; conditions: Homo sapiens, HSC-2
Description: SANGER: Inhibition of human HSC-2 cell growth in a cell viability assay.

NCI-H1437 = format: functional, cell-based, Homo sapiens; conditions: Homo sapiens, NCI-H1437
Description: SANGER: Inhibition of human NCI-H1437 cell growth in a cell viability assay.

Ca9-22 = format: functional, cell-based, Homo sapiens; conditions: Homo sapiens, Ca9-22
Description: SANGER: Inhibition of human Ca9-22 cell growth in a cell viability assay.

KYSE-180 = format: functional, cell-based, Homo sapiens; conditions: Homo sapiens, KYSE-180
Description: SANGER: Inhibition of human KYSE-180 cell growth in a cell viability assay.

KLE = format: functional, cell-based, Homo sapiens; conditions: Homo sapiens, KLE
Description: SANGER: Inhibition of human KLE cell growth in a cell viability assay.

KNS-42 = format: functional, cell-based, Homo sapiens; conditions: Homo sapiens, KNS-42
Description: SANGER: Inhibition of human KNS-42 cell growth in a cell viability assay.

GR-ST = format: functional, cell-based; conditions: Homo sapiens
Description: SANGER: Inhibition of human GR-ST cell growth in a cell viability assay.

NCI-H1563 = format: functional, cell-based, Homo sapiens; conditions: Homo sapiens, NCI-H1563
Description: SANGER: Inhibition of human NCI-H1563 cell growth in a cell viability assay.

D-336MG = format: functional, cell-based, Homo sapiens; conditions: Homo sapiens, D-336MG
Description: SANGER: Inhibition of human D-336MG cell growth in a cell viability assay.

SK-MEL-30 = format: functional, cell-based; conditions: Homo sapiens
Description: SANGER: Inhibition of human SK-MEL-30 cell growth in a cell viability assay.

KP-N-YS = format: functional, cell-based; conditions: Homo sapiens
Description: SANGER: Inhibition of human KP-N-YS cell growth in a cell viability assay.

## Nc1ccn([C@@H]2O[C@H](CO)[C@@H](O)[C@@H]2O)c(=O)n1 [CYTARABINE]
OAW-28
  IC50: > 2000 nM
ACHN
  IC50: 370 nM
EFO-27
  IC50: 1940 nM
CAKI-1
  IC50: 120 nM
NCI-H358
  IC50: > 2000 nM
TE-12
  IC50: > 2000 nM
COLO-680N
  IC50: > 2000 nM
NOS-1
  IC50: 1910 nM
ES7
  IC50: 257 nM
NMC-G1
  IC50: 1960 nM
PFSK-1
  IC50: > 2000 nM
MSTO-211H
  IC50: 324 nM
LCLC-103H cell line
  IC50: > 2000 nM
MDA-MB-175-VII
  IC50: 1990 nM
MDA-MB-415
  IC50: > 2000 nM
COR-L88
  IC50: > 2000 nM
SK-HEP1
  IC50: 556 nM
KP-4
  IC50: 536 nM
Ramos-2G6-4C10
  IC50: 868 nM
HTC-C3
  IC50: 459 nM
TE-11
  IC50: > 2000 nM
8-MG-BA
  IC50: 341 nM
RPMI-2650
  IC50: 401 nM
FaDu
  IC50: > 2000 nM
COLO-678
  IC50: > 2000 nM
BHY
  IC50: 898 nM
D-542MG
  IC50: > 2000 nM
MKN-7
  IC50: > 2000 nM
8505C
  IC50: > 2000 nM
KM12
  IC50: > 2000 nM
MDA-MB-361
  IC50: > 2000 nM
SNU-C2B
  IC50: > 2000 nM
HuCCT-1
  IC50: > 2000 nM
M059J
  IC50: 1820 nM
SW982
  IC50: 91.2 nM
A204
  IC50: 311 nM
EM-2
  IC50: 211 nM
WM-115
  IC50: > 2000 nM
HSC-2
  IC50: 1460 nM
NCI-H1437
  IC50: 798 nM
Ca9-22
  IC50: 321 nM
KYSE-180
  IC50: 565 nM
KLE
  IC50: > 2000 nM
KNS-42
  IC50: > 2000 nM
GR-ST
  IC50: 385 nM
NCI-H1563
  IC50: > 2000 nM
D-336MG
  IC50: 805 nM
SK-MEL-30
  IC50: > 2000 nM
KP-N-YS
  IC50: > 2000 nM

## O=C(NOCC1CC1)c1ccc(F)c(F)c1Nc1ccc(I)cc1Cl [CI-1040]
OAW-28
  IC50: > 10000 nM
ACHN
  IC50: 7030 nM
EFO-27
  IC50: 4790 nM
CAKI-1
  IC50: 8570 nM
NCI-H358
  IC50: 4450 nM
TE-12
  IC50: 9030 nM
COLO-680N
  IC50: > 10000 nM
NOS-1
  IC50: > 10000 nM
ES7
  IC50: > 10000 nM
NMC-G1
  IC50: > 10000 nM
PFSK-1
  IC50: > 10000 nM
MSTO-211H
  IC50: 9960 nM
LCLC-103H cell line
  IC50: > 10000 nM
MDA-MB-175-VII
  IC50: > 10000 nM
MDA-MB-415
  IC50: > 10000 nM
COR-L88
  IC50: > 10000 nM
SK-HEP1
  IC50: 5930 nM
KP-4
  IC50: > 10000 nM
Ramos-2G6-4C10
  IC50: > 10000 nM
HTC-C3
  IC50: 465 nM
TE-11
  IC50: > 10000 nM
8-MG-BA
  IC50: > 10000 nM
RPMI-2650
  IC50: > 10000 nM
FaDu
  IC50: 5560 nM
COLO-678
  IC50: 7710 nM
BHY
  IC50: > 10000 nM
D-542MG
  IC50: > 10000 nM
MKN-7
  IC50: > 10000 nM
8505C
  IC50: 3900 nM
KM12
  IC50: 241 nM
MDA-MB-361
  IC50: > 10000 nM
SNU-C2B
  IC50: > 10000 nM
HuCCT-1
  IC50: 7010 nM
M059J
  IC50: > 10000 nM
SW982
  IC50: > 10000 nM
A204
  IC50: > 10000 nM
EM-2
  IC50: 2070 nM
WM-115
  IC50: 493 nM
HSC-2
  IC50: > 10000 nM
NCI-H1437
  IC50: 1550 nM
Ca9-22
  IC50: 2970 nM
KYSE-180
  IC50: > 10000 nM
KLE
  IC50: > 10000 nM
KNS-42
  IC50: > 10000 nM
GR-ST
  IC50: 7400 nM
NCI-H1563
  IC50: > 10000 nM
D-336MG
  IC50: > 10000 nM
SK-MEL-30
  IC50: 7250 nM
KP-N-YS
  IC50: > 10000 nM

## CN(C)C/C=C/C(=O)Nc1cc2c(Nc3ccc(F)c(Cl)c3)ncnc2cc1O[C@H]1CCOC1 [AFATINIB]
OAW-28
  IC50: > 500 nM
ACHN
  IC50: 320 nM
EFO-27
  IC50: 51.8 nM
CAKI-1
  IC50: > 500 nM
NCI-H358
  IC50: > 500 nM
TE-12
  IC50: > 500 nM
COLO-680N
  IC50: > 500 nM
NOS-1
  IC50: > 500 nM
ES7
  IC50: > 500 nM
NMC-G1
  IC50: > 500 nM
PFSK-1
  IC50: > 500 nM
MSTO-211H
  IC50: > 500 nM
LCLC-103H cell line
  IC50: > 500 nM
MDA-MB-175-VII
  IC50: 34.2 nM
MDA-MB-415
  IC50: > 500 nM
COR-L88
  IC50: > 500 nM
SK-HEP1
  IC50: > 500 nM
KP-4
  IC50: > 500 nM
Ramos-2G6-4C10
  IC50: > 500 nM
HTC-C3
  IC50: > 500 nM
TE-11
  IC50: > 500 nM
8-MG-BA
  IC50: > 500 nM
RPMI-2650
  IC50: > 500 nM
FaDu
  IC50: > 500 nM
COLO-678
  IC50: > 500 nM
BHY
  IC50: 287 nM
D-542MG
  IC50: > 500 nM
MKN-7
  IC50: > 500 nM
8505C
  IC50: > 500 nM
KM12
  IC50: > 500 nM
MDA-MB-361
  IC50: > 500 nM
SNU-C2B
  IC50: > 500 nM
HuCCT-1
  IC50: > 500 nM
M059J
  IC50: > 500 nM
SW982
  IC50: > 500 nM
A204
  IC50: > 500 nM
EM-2
  IC50: > 500 nM
WM-115
  IC50: > 500 nM
HSC-2
  IC50: 168 nM
NCI-H1437
  IC50: > 500 nM
Ca9-22
  IC50: 83.5 nM
KYSE-180
  IC50: 391 nM
KLE
  IC50: > 500 nM
KNS-42
  IC50: > 500 nM
GR-ST
  IC50: > 500 nM
NCI-H1563
  IC50: > 500 nM
D-336MG
  IC50: > 500 nM
SK-MEL-30
  IC50: > 500 nM
KP-N-YS
  IC50: > 500 nM
